# Read-outs that look alike come from different tables or passages of the source.
# What was measured:
# [1] = system: P. yoelii blood stage infection in mice; assay: In vivo single-dose cure against murine malaria; settings: for Single dose cure: lowest single dose that cures all 4 mice, P. yoelii, prodrugs dosed on molar equivalency to parent drug
# Experimental: Animals that remained aparasitemic out to […] were scored as cures.
# In Vivo Single-Dose Efficacy against Murine Malaria. The effectiveness of selected 3-biarylELQs and prodrugs was assessed vs. the blood stage infection for single dose cures. Mice are infected iv with 3.5×10^4 P. yoelii infected RBCs as described for the 4-day test above. Drug administration occurred on the day after inoculation (Day 1). Test agents were dissolved in PEG-400 and administered ig once. On the 5th day blood films were prepared and % parasitemia was assessed. Animals remaining parasite-free for 30 days after drug administration were considered cured. The initial dosing range was: 0.5, 1, 2.5, 5, 10 mg/kg, including a control. Experiments were performed with 4 mice per group to ensure statistical accuracy. The reported parameter for these studies is the lowest single dose that provides a cure to all 4 animals in the group.
# [2] = system: P. falciparum D1 clone (ELQ-300 resistant); assay: microbe, parasite or virus in culture; type: cell-based; settings: Plasmodium falciparum, 72 h, read-out: P. falciparum IC50 values, nM D1
# [3] = system: P. falciparum Dd2 strain (multidrug resistant); assay: microbe, parasite or virus in culture; type: cell-based, Plasmodium falciparum; settings: Plasmodium falciparum, DD2, 72 h, read-out: P. falciparum IC50 values, nM Dd2
# Experimental: (§1) Rationale for Synthesis of a 3-Biaryl Version of ELQ-300. […] All of this information is stored in a database with information relating to chemical structure, physical chemical properties, cross resistance patterns, mammalian cell cytotoxicity, enzyme inhibitor profiles, and synthesis details. […] We employed the SyBr Green assay and the plates were incubated for 72 hours before harvesting^18, 19. […] Stock solutions were freshly prepared in DMSO.
# (§2) Plasmodium falciparum Culture. Laboratory strains of P. falciparum were cultured in human erythrocytes by standard methods. The parasites were grown in culture medium with fresh human erythrocytes maintained at 2% hematocrit at 37° C. in low-oxygen conditions (5% O2, 5% CO2, […] balance N2). […] Cultures were maintained at less than 10% parasitemia by transfer of infected cells to fresh erythrocytes and culture medium every 3 or 4 days.
# (§3) In vitro drug susceptibility assays. SYBR green I assay. In vitro antiplasmodial activity was assessed using a published SYBR Green I fluorescence-based method. The drugs were added to 96-well plates using 2-fold serial dilutions in complete medium. […] Asynchronous P. falciparum parasites were diluted with uninfected erythrocytes and added to the wells to give a final culture volume of 100 μl at 2% hematocrit and 0.2% parasitemia. […] The parasites were then lysed by adding 100 μl of SYBR green I lysis buffer containing 0.2 μl/ml SYBR green I dye (10,000×) in 20 mM Tris (pH 7.5), 5 mM EDTA, 0.008% (wt/vol) saponin, and 0.08% (vol/vol) Triton X-100. The plates were incubated at room temperature for an hour in the dark. […] If the IC50 value fell outside of the initial tested range then the range was adjusted up or down and the assay was repeated.
# [4] = system: P. falciparum Tm90-C2B (atovaquone-resistant clinical isolate); assay: In vitro antiplasmodial activity, SYBR Green I assay, Tm90-C2B; type: cell-based; settings: Plasmodium falciparum, read-out: P. falciparum IC50 values, nM Tm90-C2B
# Experimental: as §1, §2, §3
# [5] = system: P. falciparum D6 strain (drug sensitive); assay: In vitro antiplasmodial activity, SYBR Green I assay, D6 strain; type: cell-based, Plasmodium falciparum; settings: for IC50: Plasmodium falciparum, read-out: P. falciparum IC50 values, nM D6
# Experimental: as §1, §2, §3
# [6] = system: P. yoelii (Kenya Strain) blood stage infection in mice; assay: 4-day Peters test against murine malaria; type: in vivo; settings: for 4-day Peters Test Results ED50 / 4-day Peters Test Results NRD (non-recrudescence dose) / 4-day Peters Test Results ED90: P. yoelii in mice, oral gavage in PEG400 on Days 1-4, prodrugs dosed on molar equivalency to parent drug
# Experimental: On Day 5 a drop of blood was taken from the tail and a blood smear was prepared, fixed with methanol, and stained with Giemsa. The operator then examined the stained smear microscopically to determine percent parasitemia. Dosages of 0.0025, 0.005, 0.01, 0.03, 0.1, 0.3, 1.0 and 10 mg/kg/day were used for the experiment. […] In this model animals were inoculated exactly as for the 4-day test on Day 0 however drug was administered only on Day 1 while the operator made smears on Day 5 and again weekly thereafter for animals that remained aparasitemic. Animals that remained aparasitemic out to […] were scored as cures.
# (§4) In Vivo Efficacy against Murine Malaria. The P. yoelii 4-day test monitors suppression of patent infection in female CF1 mice. The test began with the inoculation (iv) of parasitized erythrocytes (3.5×10^4/P. yoelli) (from a donor animal) on the first day of the experiment (D0). […] Initially the 3-biaryl-ELQs were tested at doses of 0.0025, 0.005, 0.01, 0.03, 0.1, 0.3, 1.0 and 10 mg/kg/day, including a vehicle-only (PEG400) control. After completion of drug treatment, a blood sample was collected (by pricking the tail vein) for determination of parasite burden beginning on the day after the final dose (D5). Percent parasitemia is assessed by direct microscopic analysis of Giemsa-stained blood smears. […] Animals with observable parasitemia following the experiment were euthanized; animals cleared of parasites from the bloodstream were observed daily with assessment of parasitemia performed weekly until day 30, at which point the animal(s) were scored as cured of infection. […] Non-linear regression analysis is used for objective determination of ED50's and ED90's from the accumulated data as well as the Non-Recrudescence Dose (NRD). The 4-day test protocol was reviewed and approved by the local IACUC board at the Portland VA Medical Center. Experiments were performed with 4 mice per group to ensure statistical accuracy.
# [7] = target: T1, human liver cytochrome bc1 complex (Homo sapiens, UniProt P00156); settings: data taken from Nilsen et al., 2013 (a) or Frueh et al., 2017 (b); cited from earlier work
# T1 construct: human host cytochrome bc1 complex isolated from human liver tissue; from tissue; host or cells: human liver tissue
# [8] = target: T2, P. falciparum cytochrome bc1 complex (Plasmodium falciparum, UniProt Q02768); settings: data taken from Nilsen et al., 2013 (a) or Frueh et al., 2017 (b); cited from earlier work
# T2 construct: endogenous in cells
# T2 sequence (Q02768 1-376): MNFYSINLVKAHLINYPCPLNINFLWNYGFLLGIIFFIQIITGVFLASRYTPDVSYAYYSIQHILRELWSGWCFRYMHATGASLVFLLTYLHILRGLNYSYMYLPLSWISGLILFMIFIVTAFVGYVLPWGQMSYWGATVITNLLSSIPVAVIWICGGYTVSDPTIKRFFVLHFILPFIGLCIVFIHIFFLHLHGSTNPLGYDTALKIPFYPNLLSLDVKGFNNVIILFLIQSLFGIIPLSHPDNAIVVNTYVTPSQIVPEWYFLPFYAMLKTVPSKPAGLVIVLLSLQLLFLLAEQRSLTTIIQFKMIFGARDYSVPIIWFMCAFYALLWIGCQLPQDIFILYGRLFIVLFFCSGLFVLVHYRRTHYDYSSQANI
# [9] = target: T1, human liver cytochrome bc1 complex; assay: Inhibition of human cytochrome bc1 complex; type: biochemical; settings: complex isolated from human liver tissue
# From the text: Human Cytochrome bc1 Assays.
# [10] = HepG2 cytotoxicity, TiterGlo ATP luminescence, galactose medium; type: cell-based, human; settings: human
# Experimental: (§5) […]. Of course, enhanced potency is desirable only if unaccompanied by enhanced toxicity. […] […]. The incubation period for these experiments was 48 hours.
# HepG2 cells = assay: as above; type: cell-based, human
# Experimental: as §5
# [11] = target: T2, P. falciparum cytochrome bc1 complex; assay: biochemical; settings: cytochrome bc1 activity from P. falciparum mitochondria
# From the text: Isolation of Plasmodium falciparum Mitochondria and Ubiquinol-Cytochrome c Oxidoreductase Assay.
# [12] = Murine microsomal metabolic stability; settings: for half-life at 1 μM: pH 7.4, T1/2 (minutes)
# From the text: Ketanserin served as an internal standard for the metabolic rate of a known drug with known intermediate stability.
# Imipramine or Osalmid were used as internal standards, and ketanserin was used as a control drug with intermediate stability.
# [13] = Appearance, behaviour and weight observations in the in vivo efficacy-testing model; settings: mice, at any dose level of the efficacy tests
# Experimental: as §4
# [14] = Tm90-C2B strain, 72 h incubation, averages of quadruplicate with (95% confidence intervals)
# [15] = D6 strain, 72 h incubation, averages of quadruplicate with (95% confidence intervals)
# [16] = mouse, pooled liver microsomes, murine liver microsomes 0.5 mg/ml, 37° C., NADPH, 45 minutes
Structure (SMILES),Single dose cure ([1]; dose on Day 1) [mg/kg/day],IC50 [2] [nM],IC50 [3] [nM],"IC50 [4, 14] [nM]","IC50 [5, 15] [nM]",4-day Peters Test Results ED50 [6] [mg/kg/day],4-day Peters Test Results NRD (non-recrudescence dose) [6] [mg/kg/day],4-day Peters Test Results ED90 [6] [mg/kg/day],"half-life at 1 μM [12, 16] [h]",further results
"O=C1C(O)=C([C@H]2CC[C@H](c3ccc(Cl)cc3)CC2)C(=O)c2ccccc21 [Atovaquone, reference compound]",10,0.4,0.4,> 1000,0.08,0.1,10,,,IC50 [7]: 460 nM
"CCN(CC)CCCC(C)Nc1ccnc2cc(Cl)ccc12 (stereo not drawn) [CQ, chloroquine, reference compound]",>64,,,,,,>64,,,
"CCOC(=O)OCOc1c(-c2ccc(Oc3ccc(OC(F)(F)F)cc3)cc2)c(C)nc2cc(OC)c(Cl)cc12 [ELQ-331, reference compound]",3,,,,,,1.0,0.05,,IC50 [8]: 5300 nM; IC50 [7]: > 10000 nM
"COc1cc2[nH]c(C)c(-c3ccc(-c4ccc(OC(F)(F)F)cc4)cc3)c(=O)c2cc1Cl [ELQ-596, 6-chloro-7-methoxy-2-methyl-3-(4′-(trifluoromethoxy)-[1,1′-biphenyl]-4-yl)quinolin-4(1H)-one]",,,0.4,,,0.01,0.3,0.021,> 66.7,"IC50 [9]: > 10000 nM; IC50 ([4]; TM90, 72 h): 0.2 nM; EC50 at 48 h ([10]; HepG2, galactose medium, 48 hours, read-out: EC50 (cytotoxicity)): > 10000 nM; EC50 (HepG2 cells; medium with galactose instead of glucose): > 10000 nM; improvement of IC50 values over ELQ-300 ([5]; D6 and Dd2 strains as well as C2B): 8- to 10 fold; IC50 ([5]; D6, 72 h): 0.3 nM; IC50 [11]: 0.1 nM; CLint scaled at 1 μM ([12]; mouse, pooled liver microsomes, pH 7.4): 1.15 mL/min/kg; T1/2 (minutes) ([12]; murine liver microsomes 0.5 mg/ml, 37° C., NADPH, 45 minutes): 4,260 minutes"
"CCOC(=O)OCOc1c(-c2ccc(-c3ccc(OC(F)(F)F)cc3)cc2)c(C)nc2cc(OC)c(Cl)cc12 [ELQ-598, ((6-chloro-7-methoxy-2-methyl-3-(4′-(trifluoromethoxy)-[1,1′-biphenyl]-4-yl)quinolin-4-yl)oxy)methyl ethyl carbonate]",≤0.5,,,0.8,1.5,0.006,0.1,0.01,,"lowest fully protective single dose cure ([1]; P. yoelii in mice, dose on Day 1, lowest dose tested to date, as parent drug equivalent): 0.5 mg/kg; more effective as a single dose cure compared directly to ELQ-331 ([1]; blood stage malaria infections in mice): at least 6 times; lowest fully protective single dose cure, mg/kg of prodrug ([1]; same result expressed as mass of prodrug): 0.6 mg/kg; IC50 [9]: > 10000 nM; appearance, behavioral or weight changes after dosing [13]: no appearance, behavioral or weight changes; EC50 at 48 h [10]: > 10000 nM; P. falciparum cytochrome bc1, nM [11]: only feeble inhibitory activity; ED50, ED90 and NRD lower than for ELQ-300 and ELQ-331 ([6]; 4-day test): roughly 3 fold"
"COc1ccc2c(=O)c(-c3ccc(-c4ccc(OC(F)(F)F)cc4)cc3)c(C)[nH]c2c1 [ELQ-685, 7-Methoxy-2-methyl-3-(4′-(trifluoromethoxy)-[1,1′-biphenyl]-4-yl)quinolin-4(1H)-one]",,3.5,8.5,5.2,5.8,,,,> 66.7,
"CCOC(=O)OCOc1c(-c2ccc(-c3ccc(OC(F)(F)F)cc3)cc2)c(C)nc2cc(OC)ccc12 [ELQ-695, Ethyl (((7-methoxy-2-methyl-3-(4′-(trifluoromethoxy)-[1,1′-biphenyl]-4-yl)quinolin-4-yl)oxy)methyl) carbonate]",,8.4,22.3,10.1,20.9,0.2,3.7,0.3,> 66.7,
"C=C(C)[C@H]1Cc2c(ccc3c2O[C@@H]2COc4cc(OC)c(OC)cc4[C@@H]2C3=O)O1 [rotenone, reference compound]",,,,,,,,,,"EC50 (cytotoxicity) (HepG2 cells; HepG2, galactose medium, 48 hours): quite cytotoxic"

# Reference: patent US20250353828A1, “SUBSTITUTED BIARYL ENDOCHIN-LIKE QUINOLONES WITH ENHANCED ANTIPARASITIC ACTIVITY” (Oregon Health & Science University, priority 2022, published 2025)
